Test results from PubChem BioAssay AID248 (DTP/NCI, 2004).
Inconclusive results and toxic doses are left out.

Tested on: L1210 leukemia ip in BDF1 mice, survival T/C
Experiment: NCI In Vivo Anticancer Drug Screen. Data for tumor model L1210 Leukemia (intraperitoneal) in B6D2F1 (BDF1) mice
Conditions: endpoint: mean survival time, higher = longer survival
Outline: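 Value reflects the ratio of survival in compound-treated mice to survival in vehicle-treated controls, with both groups carrying the same transplanted tumor.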

[1] = dose: 100.0 mg/kg/injection, schedule: Q01DX009 (ip), vehicle: saline with Tween-80
[2] = dose: 200.0 mg/kg/injection, schedule: Q01DX009 (ip), vehicle: saline with Tween-80
[3] = dose: 400.0 mg/kg/injection, schedule: Q01DX009 (ip), vehicle: saline with Tween-80
[4] = dose: 100.0 mg/kg/injection, schedule: Q04DX003 (ip), vehicle: saline with Tween-80
[5] = dose: 200.0 mg/kg/injection, schedule: Q04DX003 (ip), vehicle: saline with Tween-80
[6] = dose: 400.0 mg/kg/injection, schedule: Q04DX003 (ip), vehicle: saline with Tween-80
[7] = dose: 100.0 mg/kg/injection, schedule: Q01DX001 (ip), vehicle: saline
[8] = dose: 200.0 mg/kg/injection, schedule: Q01DX001 (ip), vehicle: saline
[9] = dose: 400.0 mg/kg/injection, schedule: Q01DX001 (ip), vehicle: saline
[10] = dose: 100.0 mg/kg/injection, schedule: Q01DX009 (ip), vehicle: saline
[11] = dose: 200.0 mg/kg/injection, schedule: Q01DX009 (ip), vehicle: saline
[12] = dose: 100.0 mg/kg/injection, schedule: Q04DX002 (ip), vehicle: Klucel (hydroxypropylcellulose) (HPC)
[13] = dose: 200.0 mg/kg/injection, schedule: Q04DX002 (ip), vehicle: Klucel (hydroxypropylcellulose) (HPC)
[14] = dose: 400.0 mg/kg/injection, schedule: Q04DX002 (ip), vehicle: Klucel (hydroxypropylcellulose) (HPC)
[15] = dose: 100.0 mg/kg/injection, schedule: Q04DX003 (ip), vehicle: Klucel (hydroxypropylcellulose) (HPC)
[16] = dose: 50.0 mg/kg/injection, schedule: Q01DX009 (ip), vehicle: saline

## Fc1ccc2[nH]c3cc4ccncc4cc3c2c1
dose: 50.0 mg/kg/injection, schedule: Q04DX002 (ip), vehicle: saline
  T/C: 101 % of control
dose: 100.0 mg/kg/injection, schedule: Q04DX002 (ip), vehicle: saline
  T/C: 94 % of control
dose: 200.0 mg/kg/injection, schedule: Q04DX002 (ip), vehicle: saline
  T/C: 94 % of control

## N#C/C(=C/C=C/c1ccccc1)c1cccc([N+](=O)[O-])c1
[1]
  T/C: 108 % of control
[2]
  T/C: 91 % of control
[3]
  T/C: 100 % of control

## CCn1nnnc1-c1ccc(Cl)cc1
[4]
  T/C: 98 % of control
[5]
  T/C: 98 % of control
[6]
  T/C: 98 % of control

## NC(=O)C1CCC1C(N)=O (stereo not drawn)
[1]
  T/C: 108 % of control
[2]
  T/C: 101 % of control
[3]
  T/C: 103 % of control

## CCCCCCOC(=O)C(N)Cc1ccc(OC)c(N(CCCl)CCCl)c1 (stereo not drawn)
dose: 12.5 mg/kg/injection, schedule: Q01DX001 (ip), vehicle: saline
  T/C: 93 % of control
dose: 15.0 mg/kg/injection, schedule: Q01DX001 (ip), vehicle: saline
  T/C: 94 % of control

## O=NN(CCCl)C(=O)Nc1ccc(-c2ccc(NC(=O)N(CCCl)N=O)cc2)cc1
dose: 8.0 mg/kg/injection, schedule: Q01DX001 (ip), vehicle: carboxymethylcellulose (CMC)
  T/C: 116 % of control
dose: 16.0 mg/kg/injection, schedule: Q01DX001 (ip), vehicle: carboxymethylcellulose (CMC)
  T/C: 118 % of control
dose: 250.0 mg/kg/injection, schedule: Q01DX001 (ip), vehicle: carboxymethylcellulose (CMC)
  T/C: 161 % of control
dose: 375.0 mg/kg/injection, schedule: Q01DX001 (ip), vehicle: carboxymethylcellulose (CMC)
  T/C: 163 % of control
dose: 500.0 mg/kg/injection, schedule: Q01DX001 (ip), vehicle: carboxymethylcellulose (CMC)
  T/C: 190 % of control
dose: 750.0 mg/kg/injection, schedule: Q01DX001 (ip), vehicle: carboxymethylcellulose (CMC)
  T/C: 229 % of control
dose: 1000.0 mg/kg/injection, schedule: Q01DX001 (ip), vehicle: carboxymethylcellulose (CMC)
  T/C: 229 % of control
dose: 1500.0 mg/kg/injection, schedule: Q01DX001 (ip), vehicle: carboxymethylcellulose (CMC)
  T/C: 232 % of control
dose: 2000.0 mg/kg/injection, schedule: Q01DX001 (ip), vehicle: carboxymethylcellulose (CMC)
  T/C: 168 % of control
dose: 2500.0 mg/kg/injection, schedule: Q01DX001 (ip), vehicle: carboxymethylcellulose (CMC)
  T/C: 223 % of control

## C[N+]1(C)C2CCC1C(CO)C(O)C2 (stereo not drawn)
[7]
  T/C: 94 % of control
[8]
  T/C: 97 % of control
[9]
  T/C: 94 % of control

## CCC(CC)(CC)c1ccc2ccccc2c1
[7]
  T/C: 98 % of control
[8]
  T/C: 96 % of control
[9]
  T/C: 106 % of control

## COC(=O)CCC(C)[N+](=O)[O-] (stereo not drawn)
[10]
  T/C: 112 % of control
[11]
  T/C: 104 % of control
dose: 400.0 mg/kg/injection, schedule: Q01DX009 (ip), vehicle: saline
  T/C: 98 % of control

## N=C(N)c1cccc(OCc2ccccc2)c1
dose: 100.0 mg/kg/injection, schedule: Q01DX001 (ip), vehicle: Klucel (hydroxypropylcellulose) (HPC)
  T/C: 90 % of control
dose: 200.0 mg/kg/injection, schedule: Q01DX001 (ip), vehicle: Klucel (hydroxypropylcellulose) (HPC)
  T/C: 94 % of control
dose: 400.0 mg/kg/injection, schedule: Q01DX001 (ip), vehicle: Klucel (hydroxypropylcellulose) (HPC)
  T/C: 94 % of control

## S=C(c1ccccc1)N1CCOCC1
[12]
  T/C: 100 % of control
[13]
  T/C: 111 % of control
[14]
  T/C: 96 % of control

## O=C(Nc1ccc(S(=O)(=O)Nc2ncccn2)cc1)c1ccc(C(=O)Nc2ccc(S(=O)(=O)Nc3ncccn3)cc2)cc1
dose: 50.0 mg/kg/injection, schedule: Q01DX015 (ip), vehicle: methylcellulose (MC)
  T/C: 100 % of control
dose: 100.0 mg/kg/injection, schedule: Q01DX015 (ip), vehicle: methylcellulose (MC)
  T/C: 103 % of control
dose: 200.0 mg/kg/injection, schedule: Q01DX015 (ip), vehicle: methylcellulose (MC)
  T/C: 97 % of control
dose: 400.0 mg/kg/injection, schedule: Q01DX015 (ip), vehicle: methylcellulose (MC)
  T/C: 106 % of control

## C=CCO[Si](OCC=C)(OCC=C)OCC=C
dose: 75.0 mg/kg/injection, schedule: Q01DX001 (ip), vehicle: other
  T/C: 101 % of control
dose: 150.0 mg/kg/injection, schedule: Q01DX001 (ip), vehicle: other
  T/C: 98 % of control

## N#CC(Cc1ccccc1Cl)(Cc1ccccc1Cl)c1ccccc1
dose: 100.0 mg/kg/injection, schedule: Q01DX009 (ip), vehicle: Klucel (hydroxypropylcellulose) (HPC)
  T/C: 110 % of control
[15]
  T/C: 108 % of control
dose: 200.0 mg/kg/injection, schedule: Q01DX009 (ip), vehicle: Klucel (hydroxypropylcellulose) (HPC)
  T/C: 105 % of control
dose: 200.0 mg/kg/injection, schedule: Q04DX003 (ip), vehicle: Klucel (hydroxypropylcellulose) (HPC)
  T/C: 94 % of control
dose: 400.0 mg/kg/injection, schedule: Q01DX009 (ip), vehicle: Klucel (hydroxypropylcellulose) (HPC)
  T/C: 105 % of control
dose: 400.0 mg/kg/injection, schedule: Q04DX003 (ip), vehicle: Klucel (hydroxypropylcellulose) (HPC)
  T/C: 108 % of control

## O=C(CNC(=O)c1ccccc1)Nc1ccccc1
[7]
  T/C: 105 % of control
[8]
  T/C: 97 % of control
[9]
  T/C: 97 % of control

## CC1C(=O)OC2CC[N+]3(C(C)C)CC=C(COC(=O)C(C)(O)C1(C)O)C23 (stereo not drawn)
[16]
  T/C: 100 % of control
[10]
  T/C: 106 % of control
[11]
  T/C: 106 % of control

## O=C(CCOCc1ccccc1)N1Cc2cc3ccccc3nc2C1
dose: 10.0 mg/kg/injection, schedule: Q04DX003 (ip), vehicle: alcohol
  T/C: 96 % of control
dose: 20.0 mg/kg/injection, schedule: Q04DX003 (ip), vehicle: alcohol
  T/C: 97 % of control
dose: 40.0 mg/kg/injection, schedule: Q04DX003 (ip), vehicle: alcohol
  T/C: 92 % of control
dose: 80.0 mg/kg/injection, schedule: Q04DX003 (ip), vehicle: alcohol
  T/C: 103 % of control
dose: 160.0 mg/kg/injection, schedule: Q04DX003 (ip), vehicle: alcohol
  T/C: 92 % of control

## CCOC(=O)C1C2CCCC(=O)C21 (stereo not drawn)
[12]
  T/C: 96 % of control
[13]
  T/C: 104 % of control
[14]
  T/C: 100 % of control

## CCOC(=O)Cc1c(C)c2cc(C(=O)c3ccccc3)c(O)cc2oc1=O
[7]
  T/C: 98 % of control
[8]
  T/C: 96 % of control
[9]
  T/C: 93 % of control

## Nc1cccc(OCc2nc(N)nc(N)c2-c2ccc(Cl)c(Cl)c2)c1
dose: 100.0 mg/kg/injection, schedule: Q01DX001 (ip), vehicle: saline with Tween-80
  T/C: 97 % of control
dose: 200.0 mg/kg/injection, schedule: Q01DX001 (ip), vehicle: saline with Tween-80
  T/C: 90 % of control

## Cc1nc(Cl)c2cnccn12
dose: 12.5 mg/kg/injection, schedule: Q01DX009 (ip), vehicle: saline
  T/C: 101 % of control
dose: 25.0 mg/kg/injection, schedule: Q01DX009 (ip), vehicle: saline
  T/C: 105 % of control
[16]
  T/C: 103 % of control
dose: 100.0 mg/kg/injection, schedule: Q04DX003 (ip), vehicle: saline
  T/C: 88 % of control

## N=C(OC1CCCCC1)N1CCCC1
dose: 22.0 mg/kg/injection, schedule: Q01DX Z (ip), vehicle: saline
  T/C: 98 % of control
dose: 33.0 mg/kg/injection, schedule: Q01DX Z (ip), vehicle: saline
  T/C: 98 % of control
dose: 50.0 mg/kg/injection, schedule: Q01DX Z (ip), vehicle: saline
  T/C: 98 % of control

## ClCOCCCCOCCl
[16]
  T/C: 114 % of control
[10]
  T/C: 87 % of control

## COc1ccc(N=C=Nc2ccc(OC)cc2)cc1
dose: 12.0 mg/kg/injection, schedule: Q01DX009 (ip), vehicle: Klucel (hydroxypropylcellulose) (HPC)
  T/C: 101 % of control
dose: 25.0 mg/kg/injection, schedule: Q01DX009 (ip), vehicle: Klucel (hydroxypropylcellulose) (HPC)
  T/C: 108 % of control
dose: 25.0 mg/kg/injection, schedule: Q04DX003 (ip), vehicle: Klucel (hydroxypropylcellulose) (HPC)
  T/C: 96 % of control
dose: 50.0 mg/kg/injection, schedule: Q01DX009 (ip), vehicle: Klucel (hydroxypropylcellulose) (HPC)
  T/C: 90 % of control
dose: 50.0 mg/kg/injection, schedule: Q04DX003 (ip), vehicle: Klucel (hydroxypropylcellulose) (HPC)
  T/C: 93 % of control
[15]
  T/C: 98 % of control

## CCCC(C)OC(=O)Nc1cccc(OC(=O)NC)c1 (stereo not drawn)
[4]
  T/C: 102 % of control
[5]
  T/C: 98 % of control
[6]
  T/C: 101 % of control
